Test results as given in paper PMC10647616, “Side-Chain Modified [^99mTc]Tc-DT1 Mimics: A Comparative Study in NTS1R-Positive Models” (International Journal of Molecular Sciences, 2023).
Residues, ends and D or L forms follow the SMILES beside them. *: point of attachment. N4 = 6-(carboxy)-1,4,8,11-tetraazaundecane chelator, NCCNCC(CNCCN)C(=O)*; Butanoyl(4-(4-MePh)) = Cc1ccc(CCCC(=O)*)cc1; X1 = NCCNCC(CNCCN)C(=O)*

Legend:
human NTS1R = target: T1, human NTS1R (Homo sapiens, UniProt P30989); experiment: Competition binding against [125I]I-Tyr3-NT in WiDr cell membrane homogenates; settings: WiDr cell membranes, 1 h at 22 °C, mean ± sd; read-out: IC50, [125I]I-Tyr3-NT displacement from NTS1R binding sites
T1 construct: freshly prepared membrane homogenates of human colon adenocarcinoma WiDr cells; endogenous in cells; host or cells: WiDr human colon adenocarcinoma cells (membrane homogenates)
T1 sequence (P30989 whole entry): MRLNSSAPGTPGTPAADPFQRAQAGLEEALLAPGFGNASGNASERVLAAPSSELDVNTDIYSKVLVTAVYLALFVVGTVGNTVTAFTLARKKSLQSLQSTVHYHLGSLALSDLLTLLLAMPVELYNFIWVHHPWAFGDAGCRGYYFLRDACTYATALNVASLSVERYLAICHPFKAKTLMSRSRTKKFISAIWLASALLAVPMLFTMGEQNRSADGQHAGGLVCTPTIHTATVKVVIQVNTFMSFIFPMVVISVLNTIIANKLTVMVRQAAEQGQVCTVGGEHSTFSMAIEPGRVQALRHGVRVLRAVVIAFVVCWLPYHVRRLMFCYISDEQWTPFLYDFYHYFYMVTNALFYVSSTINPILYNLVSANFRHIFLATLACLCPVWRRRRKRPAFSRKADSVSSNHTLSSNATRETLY
Protocol: Aliquots of the cell membrane homogenates from WiDr cells (collected and stored at −80 °C in Tris/EDTA:10 mM of Tris, 0.1 mM of EDTA, pH 7.4) were thawed, combined and diluted in cold BB. In RIA tubes in triplicate, the test peptide (30 µL) of each concentration point, radioligand (70 µL) and membrane homogenate (200 µL) were consecutively added and thoroughly vortexed. Samples were placed for 1 h in the Incubator-Orbital Shaker (MPM Instr. Srl; Bernareggio, Italy) at 22 °C under constant steering. […] The samples were aspirated, and individual filters corresponding to each tube were collected in separate plastic tubes and measured for radioactivity on the γ-counter. Inhibition curves were plotted and the half maximal inhibitory concentration (IC50) values were calculated by applying a nonlinear one-site model (GraphPad Prism—6 Software, San Diego, CA, USA). The results for each compound are given as the average IC50 values ± sd of at least three independent repetitions of the experiment performed in triplicate.

albumin = albumin (Bos taurus, UniProt P02769); format: in vitro ADME, bovine
Chain of albumin (P02769 25-607): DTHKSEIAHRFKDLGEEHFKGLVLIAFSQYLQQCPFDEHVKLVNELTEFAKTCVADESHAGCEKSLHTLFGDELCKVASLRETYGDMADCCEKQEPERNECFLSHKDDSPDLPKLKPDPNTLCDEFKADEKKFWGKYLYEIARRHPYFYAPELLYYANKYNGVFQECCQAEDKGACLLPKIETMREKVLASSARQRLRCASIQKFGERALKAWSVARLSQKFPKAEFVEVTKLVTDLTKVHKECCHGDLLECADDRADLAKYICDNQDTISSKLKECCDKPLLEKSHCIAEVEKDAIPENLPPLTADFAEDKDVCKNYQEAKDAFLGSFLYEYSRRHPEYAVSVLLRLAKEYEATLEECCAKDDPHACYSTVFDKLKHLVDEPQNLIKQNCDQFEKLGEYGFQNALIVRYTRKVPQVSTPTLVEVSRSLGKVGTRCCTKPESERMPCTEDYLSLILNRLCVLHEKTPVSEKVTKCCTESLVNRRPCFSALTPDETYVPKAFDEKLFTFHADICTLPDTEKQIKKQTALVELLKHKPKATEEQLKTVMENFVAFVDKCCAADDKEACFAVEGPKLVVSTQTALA
Protocol: The binding of the new [^99mTc]Tc-DT10/11/12 and the [^99mTc]Tc-DT1 reference to albumin was compared via the incubation of radioligands in BSA-treated 6-well plates. Accordingly, HEPES-buffered saline (150 mM of NaCl, 20 mM of HEPES, pH 7.4) supplemented with 0.5% w/v BSA (1200 µL of HBS-BSA) was added to each well, followed by the radioligand (250 fmol peptide, in 150 µL of HBS) and either HBS-BSA (150 µL, total binding) or Ibuprofen (22.2 mg/mL in HBS, 150 µL), to reach a total final volume of 1.5 mL. The plates were incubated in triplicate at 37 °C for 30 min in the incubator. Next, the supernatants were discarded and the wells were treated with 1 M NaOH (2 × 600 µL). The lysates were combined and collected in RIA tubes for radioactivity measurement on the γ-counter. Binding to albumin was calculated as a percentage of the measured activity vs. the activity originally added per well. The experiments were performed at least three times in triplicate and the results represent the average binding to albumin ± sd.

AsPC-1 cells = experiment: Time-dependent radioligand internalization in AsPC-1 cells; format: cell-based, human; settings: 37 °C, at 1 h, non-specific (1 μM NT) subtracted
Protocol: The time-dependent internalization of [^99mTc]Tc-DT10/11/12 was directly compared with [^99mTc]Tc-DT1 via incubation in AsPC-1 cells at 37 °C for 15 min, 30 min, 1 h and 2 h. The cells were seeded in 6-well plates (1 × 10^6 per well) and left in the incubator overnight. The next day, the cells were washed twice with ice-cold internalization medium (IM, RPMI supplemented with 1% FBS). The plates were placed on the bench and the following solutions were successively added per well: warm IM (1200 µL at 37 °C), radioligand (250 fmol in 150 µL of IM) and either IM (150 µL; 3 upper wells: total series) or NT (10^−5 M in IM, 3 bottom wells: non-specific series). The plates were placed in the incubator at 37 °C and, at the predetermined time points, were retrieved and placed on ice. […] The three fractions collected per well in separate RIA tubes (supernatant, MB and internalized) were measured for their radioactivity content on the γ-counter. The radioactivity of each fraction was then assessed as a percentage of the initial activity added per well. By subtracting the non-specific fractions from the respective total fractions, the specific MB and internalization fractions could be determined. […] The results were expressed as mean ± sd.

CC[C@H](C)[C@H](NC(=O)[C@H](Cc1ccc(O)cc1)NC(=O)[C@@H]1CCCN1C(=O)[C@H](CCCNC(=N)N)NC(=O)[C@H](CCCNC(=N)N)NC(=O)CNC(=O)C(CNCCN)CNCCN)C(=O)N[C@@H](CC(C)C)C(=O)O [DT1, N4-Gly-Arg-Arg-Pro-Tyr-Ile-Leu-OH] (X1-GRRPYIL-OH)
IC50 (human NTS1R): 0.14 ± 0.01 nM

CC[C@H](C)[C@H](NC(=O)[C@H](Cc1ccc(O)cc1)NC(=O)[C@@H]1CCCN1C(=O)[C@H](CCCNC(=N)N)NC(=O)[C@H](CCCNC(=N)N)NC(=O)[C@H](CCCCNC(=O)CCCc1ccc(C)cc1)NC(=O)C(CNCCN)CNCCN)C(=O)N[C@@H](CC(C)C)C(=O)O [DT10] (X1-K(Butanoyl(4-(4-MePh)))RRPYIL-OH)
IC50 (human NTS1R): 0.06 ± 0.03 nM

[^99mTc]Tc-DT1: Tc-99m labeled DT1 (N4-Gly-Arg-Arg-Pro-Tyr-Ile-Leu-OH), unmodified reference radioligand (N4-GRRPYIL-OH; also: 99mTc complexed by N4 chelator)
binding to albumin (albumin): < 1.0% | specific internalization (AsPC-1 cells): 15.1 ± 2.3%
